Reference: ChEMBL document CHEMBL1134987, “Novel spirocyclic pyrrolidones as P2/P1 mimetics in potent inhibitors of HIV-1 protease” (Bioorg Med Chem Lett, 2002)

Target: Human immunodeficiency virus type 1 protease (Human immunodeficiency virus 1, UniProt Q72874)
Assay: The compound was tested for its inhibition against HIV-1 protease

Compared with `COc1ccc(S(=O)(=O)N(CC2CCCC2)C[C@@H](O)CN2C(=O)C3(CCCCC3)OC[C@@H]2Cc2ccccc2)cc1`, `COc1ccc(S(=O)(=O)N(CC2CCCC2)C[C@@H](O)CN2C(=O)[C@@H](Cc3ccccc3)C[C@@H]2Cc2ccccc2)cc1` is 2.1-fold lower in Ki: 1.7 nM for the first, 0.8 nM for the second.

Compared with `O=C(N[C@H]1c2ccccc2C[C@H]1O)[C@H](Cc1ccccc1)C[C@H](O)CN1C(=O)C2(CCCCC2)C[C@@H]1Cc1ccccc1`, `O=C(N[C@H]1c2ccccc2C[C@H]1O)[C@H](Cc1ccccc1)C[C@H](O)CN1C(=O)C2(CCOCC2)C[C@@H]1Cc1ccccc1` is 2.2-fold lower in Ki: 50 nM for the first, 23 nM for the second.

First: NC(C(=O)[C@H](Cc1ccccc1)C[C@H](O)CN1C(=O)[C@@H](Cc2ccccc2)C[C@@H]1Cc1ccccc1)[C@H]1c2ccccc2C[C@H]1O (stereo partly specified)
Second: O=C(N[C@H]1c2ccccc2C[C@H]1O)[C@H](Cc1ccccc1)C[C@H](O)CN1C(=O)C2(CCN(Cc3ccccc3)CC2)C[C@@H]1Cc1ccccc1
The Ki of the first is 50000-fold lower: 0.05 nM for the first, 2500 nM for the second.
